Source: PMC5100313, “A new tool for the chemical genetic investigation of the Plasmodium falciparum Pfnek-2 NIMA-related kinase” (Malaria Journal, 2016)

Biological target: T1, Pfnek-2(V24C) (Plasmodium falciparum, UniProt C0H4G2, V24C)
T1 construct: gene PF3D7_0525900
T1 sequence (C0H4G2 1-286 V24C): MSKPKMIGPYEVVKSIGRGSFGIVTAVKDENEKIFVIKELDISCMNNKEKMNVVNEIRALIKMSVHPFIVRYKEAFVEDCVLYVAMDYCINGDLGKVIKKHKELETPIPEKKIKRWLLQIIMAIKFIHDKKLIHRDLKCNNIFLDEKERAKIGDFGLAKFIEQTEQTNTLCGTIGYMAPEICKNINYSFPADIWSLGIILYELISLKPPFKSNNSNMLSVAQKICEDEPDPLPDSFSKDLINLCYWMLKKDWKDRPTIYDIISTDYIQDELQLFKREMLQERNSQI
Test: in vitro […]-ATP kinase assay (MBP substrate), washout, intact-protein LC-MS (mass shift […] Da)
Format: biochemical

Work on `C#Cc1nc(Nc2ccc(S(N)(=O)=O)cc2)nc2[nH]cnc12` [NCL-00016066, 4-(6-ethynyl-9H-purin-2-ylamino) benzene sulfonamide] yielded an IC50 of 0.501 µM.
